Source: PubChem BioAssay (NCI)
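GI50 = concentration required for 50% inhibition of growth. Definition used: TGI = concentration required for complete inhibition of growth.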

Legend:
Test in all cases: NCI anticancer screen, dose series, 384-well format
[1] = tested on: 786-0 renal
[2] = tested on: A498 renal
[3] = tested on: A549 NSCLC
[4] = tested on: ACHN renal
[5] = tested on: BT-549 breast
[6] = tested on: CAKI-1 renal
[7] = tested on: CCRF-CEM leukemia
[8] = tested on: COLO 205 colon
[9] = tested on: DU-145 prostate
[10] = tested on: EKVX NSCLC
[11] = tested on: HCC-2998 colon
[12] = tested on: HCT-116 colon
[13] = tested on: HCT-15 colon
[14] = tested on: HL-60(TB) leukemia
[15] = tested on: HOP-62 NSCLC
[16] = tested on: HOP-92 NSCLC
[17] = tested on: HS 578T breast
[18] = tested on: HT29 colon
[19] = tested on: IGROV1 ovarian
[20] = tested on: K-562 leukemia
[21] = tested on: KM12 colon
[22] = tested on: LOX IMVI melanoma
[23] = tested on: M14 melanoma
[24] = tested on: MALME-3M melanoma
[25] = tested on: MCF7 breast
[26] = tested on: MDA-MB-231 breast
[27] = tested on: MDA-MB-435 melanoma
[28] = tested on: MDA-MB-468 breast
[29] = tested on: MOLT-4 leukemia
[30] = tested on: NCI-H226 lung
[31] = tested on: NCI-H23 lung
[32] = tested on: NCI-H322M lung
[33] = tested on: NCI-H460 NSCLC
[34] = tested on: NCI-H522 lung
[35] = tested on: NCI/ADR-RES ovarian
[36] = tested on: OVCAR-3 ovarian
[37] = tested on: OVCAR-4 ovarian
[38] = tested on: OVCAR-5 ovarian
[39] = tested on: OVCAR-8 ovarian
[40] = tested on: PC-3 prostate
[41] = tested on: RPMI-8226 leukemia
[42] = tested on: RXF 393 renal
[43] = tested on: SF-268 CNS
[44] = tested on: SF-295 CNS
[45] = tested on: SF-539 CNS
[46] = tested on: SK-MEL-2 melanoma
[47] = tested on: SK-MEL-28 melanoma
[48] = tested on: SK-MEL-5 melanoma
[49] = tested on: SK-OV-3 ovarian
[50] = tested on: SN12C renal
[51] = tested on: SNB-19 CNS
[52] = tested on: SNB-75 CNS
[53] = tested on: SR leukemia
[54] = tested on: SW-620 colon
[55] = tested on: T-47D breast
[56] = tested on: TK-10 renal
[57] = tested on: U251 glioblastoma
[58] = tested on: UACC-257 melanoma
[59] = tested on: UACC-62 melanoma
[60] = tested on: UO-31 renal

With O=C(Cc1ccccc1)Nc1nnc(CCSCCc2nnc(NC(=O)Cc3ccccc3)s2)s1 the GI50 [1] was 2.27 µM, the TGI [1] was 8.96 µM and the GI50 [2] was 3.13 µM. The TGI [2] was 11.9 µM, the GI50 [3] was 1.06 µM and the TGI [3] was 5.54 µM. The GI50 [4] was > 30 µM, the TGI [4] was > 100 µM and the GI50 [5] was 9.85 µM. For the same molecule, the TGI [5] was 30.5 µM, the GI50 [6] was 8.03 µM and the TGI [6] was > 41 µM. The GI50 [7] was 11.6 µM, the TGI [7] was > 100 µM and the GI50 [8] was > 100 µM. For the same molecule, the TGI [8] was > 100 µM, the GI50 [9] was 14 µM and the TGI [9] was > 100 µM. For the same molecule, the GI50 [10] was 17.2 µM, the TGI [10] was > 92.9 µM and the GI50 [11] was 39.7 µM. For the same molecule, the TGI [11] was > 100 µM, the GI50 [12] was > 72.6 µM and the TGI [12] was > 100 µM. For the same molecule, the GI50 [13] was > 100 µM, the TGI [13] was > 100 µM and the GI50 [14] was 28.3 µM. For the same molecule, the TGI [14] was > 100 µM, the GI50 [15] was 2.92 µM and the TGI [15] was 11.9 µM. For the same molecule, the GI50 [16] was 3.05 µM, the TGI [16] was 14.8 µM and the GI50 [17] was 0.9 µM. The TGI [17] was 3.37 µM, the GI50 [18] was > 100 µM and the TGI [18] was > 100 µM. For the same molecule, the GI50 [19] was 29.1 µM, the TGI [19] was > 94 µM and the GI50 [20] was 10.1 µM. The TGI [20] was > 100 µM, the GI50 [21] was 1.94 µM and the TGI [21] was > 100 µM. The GI50 [22] was 3.99 µM, the TGI [22] was 23.1 µM and the GI50 [23] was > 43.4 µM. The TGI [23] was > 88.8 µM, the GI50 [24] was 16.1 µM and the TGI [24] was 45.5 µM. For the same molecule, the GI50 [25] was > 28.5 µM, the TGI [25] was > 75.1 µM and the GI50 [26] was 3.07 µM. The TGI [26] was 28.9 µM, the GI50 [27] was 30 µM and the TGI [27] was > 100 µM. For the same molecule, the GI50 [28] was 29.7 µM, the TGI [28] was > 83.2 µM and the GI50 [29] was > 39.2 µM. The TGI [29] was > 100 µM, the GI50 [30] was 7.56 µM and the TGI [30] was 31.3 µM. The GI50 [31] was 16.1 µM, the TGI [31] was 39.7 µM and the GI50 [32] was 0.393 µM. For the same molecule, the TGI [32] was 2.21 µM, the GI50 [33] was 10.8 µM and the TGI [33] was > 100 µM. The GI50 [34] was 2.92 µM, the TGI [34] was 15.1 µM and the GI50 [35] was > 100 µM. For the same molecule, the TGI [35] was > 100 µM, the GI50 [36] was 7.24 µM and the TGI [36] was > 60.5 µM. It also gave a GI50 [37] of 13.2 µM, a TGI [37] of 40.5 µM and a GI50 [38] of 16.7 µM. For the same molecule, the TGI [38] was > 100 µM, the GI50 [39] was 4.38 µM and the TGI [39] was 17.9 µM. For the same molecule, the GI50 [40] was 13.4 µM, the TGI [40] was 35 µM and the GI50 [41] was 1.42 µM. The GI50 [42] was 1.42 µM, the TGI [42] was 4.88 µM and the GI50 [43] was 2.16 µM. It also gave a TGI [43] of 9.86 µM, a GI50 [44] of 9.57 µM and a TGI [44] of 26.4 µM. It also gave a GI50 [45] of 3.16 µM, a TGI [45] of 18.2 µM and a GI50 [46] of 3.07 µM. For the same molecule, the TGI [46] was 10.7 µM, the GI50 [47] was 21.7 µM and the TGI [47] was > 61.2 µM. The GI50 [48] was 10.4 µM, the TGI [48] was 52.5 µM and the GI50 [49] was 15.5 µM. The TGI [49] was 40.4 µM, the GI50 [50] was 3.29 µM and the TGI [50] was 19.5 µM. It also gave a GI50 [51] of 19.4 µM, a TGI [51] of 48 µM and a GI50 [52] of 8.91 µM. For the same molecule, the TGI [52] was 27.2 µM, the GI50 [53] was 0.544 µM and the TGI [53] was > 100 µM. For the same molecule, the GI50 [54] was > 60.9 µM, the TGI [54] was > 100 µM and the GI50 [55] was 27.3 µM. For the same molecule, the TGI [55] was > 88.3 µM, the GI50 [56] was 18 µM and the TGI [56] was 62.2 µM. The GI50 [57] was 3.13 µM, the TGI [57] was 21.4 µM and the GI50 [58] was 13.5 µM. The TGI [58] was > 76.6 µM, the GI50 [59] was 8.39 µM and the TGI [59] was 31.1 µM. For the same molecule, the GI50 [60] was 46 µM and the TGI [60] was > 100 µM.
